Assay results taken from patent US20110319352A1, “Compounds That Bind Oxysterol Binding Proteins, and Methods of Use Thereof” (President and Fellows of Harvard College, priority 2008, published 2011).
Like-named read-outs stand apart in the source and are kept apart here.

Columns and labels:
normal astrocytes = settings: cited from earlier work
normal lymphocytes = settings: cited from earlier work
pERK1/2 in HCT-116 cells = assay: Western blot of pERK1/2; type: cell-based; settings: cephalostatin 1 50 nM, 25-OHC 20 μM 12 h
Protocol: FIG. 21 depicts Western blot and densitometry analysis of pERK1/2 in HCT-116 cells during treatment with 50 nM cephalostatin 1. 25-OHC (20 μM) and okadaic acid (OKA, 10 nM) treatments were for 12 h and 24 h, respectively.
As another test of whether CRAMs perturb a known OSBP function, it was determined whether CRAMs induce changes to the phosphorylation state of ERK1/2. As mentioned above, 25-OHC binds OSBP and causes disruption of a complex between OSBP and the phosphatases HePTP and PP2A. This blocks dephosphorylation of pERK1/2, leading to a persistence of pERK1/2. Opposing this effect is cholesterol, which binds OSBP, inducing formation of the OSBP-HePTP-PP2A ternary complex, causing ERK1/2 dephosphorylation (FIG. 13).

P388 tumor cells = settings: single i.p. treatment of 0.01 mg/kg; cited from earlier work
ORP4-myc-his = biological target: T1, ORP4-myc-his (Homo sapiens, UniProt Q969R2); assay: competitive binding assay, displacement of [3H]-25-OHC from ORP4; settings: 20 nM [3H]-25-OHC, ORP4-myc-his S100 lysate (HEK-293T), 16 h at 4° C.; read-out: Ki, displacing [3H]-25-OHC from ORP4
T1 construct: made in house; host or cells: HEK-293T (crude S100 lysate, not purified)
Protocol: It has been determined that CRAMs inhibit the binding of radiolabelled 25-OHC ([^3H]-25-OHC) to recombinant OSBP-myc-his and ORP4-myc-his overexpressed in HEK-293T lysate (FIG. 18). It is known that 25-hydroxycholesterol is a high affinity ligand for OSBP and ORP4. Increasing concentrations of CRAMs or OSW-1 analogs were incubated with 20 nM [^3H]-25-OHC in OSBP-myc-his or ORP4-myc-his S100 lysate for 16 h at 4° C. after which unbound sterol was removed using charcoal-dextran and the bound sterol quantified by LCS (liquid scintillation counting).
These experiments provide evidence that CRAMs are ligands of OSBP and ORP4, and in the case of 1 and 2, they are high affinity ligands.
To measure the Kis of CRAMs to OSBP and ORP4 reported above, a previously reported dextran-coated charcoal assay was adapted into a 96-well format. […] To solve these limitations a binding SPA (scintillation proximity assay) for OSBP/ORPs (FIG. 26) will be developed.

OSBP protein levels = OSBP protein levels by western blot; type: cell-based
Protocol: One unanticipated discovery from the IF studies was that, after several hours, CRAM treatment of cells caused a significant reduction in the intensity of the OSBP fluorescent signal. This could mean that CRAMs are inducing a reduction in OSBP protein levels: an effect not observed with 25-OHC. The amount of OSBP protein in cells exposed to CRAMs was measured by western blot. […] Cephalostatin 1 induced a 70% reduction in OSBP at 12 h, and OSW-1 caused a 69% reduction in OSBP at 24 h. […] This supports a situation where reduction of OSBP levels by 1 and 2 is a result of a proteasome-dependent degradation process. One possible scenario is that 1 and 2 are also causing protein level reductions of ORPs and this is the source of cytotoxicity of CRAMs.

HL-60 = settings: cited from earlier work
[1] = test system: OSBP localization in HCT-116 p21+/+ cells; assay: OSBP localization by immunofluorescence confocal microscopy; type: cell-based; settings: compound exposure 4 h (OSW-1 1 nM)
Protocol: FIG. 22 depicts OSBP localization in HCT-116 p21^+/+ cells imaged by immunofluorescence confocal microscopy. Immunofluorescence was used to image OSBP and the trans-Golgi protein p230 after compound exposure for 4 h. […] was labeled with Hoescht 33342.
As another way to investigate how CRAMs may affect OSBP, immunofluorescence (IF) experiments were performed in HCT-116 p21^+/+ cells to determine whether OSBP localization was altered upon treatment with different CRAMs. In untreated cells, OSBP resides largely at ER/cytoplasmic sites with a partial localization at the Golgi (FIG. 22A).
This translocation has been reported many times in the literature as an effect of 25-OHC on OSBP. Treatment of cells with OSW-1 at 1 nM for 4 h caused a dramatic and unprecedented effect on OSBP localization (FIG. 22C). […] In this case p230 has been dispersed (see […]). The translocation of OSBP induced by 2 is distinct from that of 25-OHC. […] They also reveal that the effects on OSBP translocation by 1 and 2 are distinct from 25-OHC.

U87-MG = settings: cited from earlier work
[2] = test system: HCT-116 p21−/− shNT and shOSBP cells; assay: CRAM cytotoxicity after shRNA knockdown of OSBP, HCT-116 p21−/−; type: cell-based
Text: FIG. 17 depicts CRAM cytotoxicity in shRNA OSBP knockdown cell lines. A: Dose curves from a representative experiment. B: GI50 values of CRAMs and control compounds in HCT-116 p21−/− shNT and shOSBP cells and densitometric analysis of OSBP-levels. shNT=non-targeting shRNA, shOSBP=OSBP-targeting shRNA; * P=0.0006 (n=4), ** P=0.0002 (n=3), *** P=0.0003 (n=3), and **** P≦0.0001 (n=7) compared to shNT-treated cells.
To determine whether the cytotoxicity of CRAMs depends on the amount of OSBP in cells, the effects of shRNA knockdown of OSBP on the growth inhibitory activity of CRAMs was measured. Treatment of HCT-116 p21^−/− cells with shRNA targeted to OSBP [24] caused an 84% reduction in the level of OSBP as measured by western blot (FIG. 17B, bottom right).

[3] = test system: HCT-116 p21−/− shNT and shOSBP cells; assay: as above; type: cell-based; settings: OSBP knocked down by 89% (FIG. 8)
NCI-60 = settings: read-out: GI50, average against the NCI-60; cited from earlier work

T1 sequence (Q969R2 whole entry): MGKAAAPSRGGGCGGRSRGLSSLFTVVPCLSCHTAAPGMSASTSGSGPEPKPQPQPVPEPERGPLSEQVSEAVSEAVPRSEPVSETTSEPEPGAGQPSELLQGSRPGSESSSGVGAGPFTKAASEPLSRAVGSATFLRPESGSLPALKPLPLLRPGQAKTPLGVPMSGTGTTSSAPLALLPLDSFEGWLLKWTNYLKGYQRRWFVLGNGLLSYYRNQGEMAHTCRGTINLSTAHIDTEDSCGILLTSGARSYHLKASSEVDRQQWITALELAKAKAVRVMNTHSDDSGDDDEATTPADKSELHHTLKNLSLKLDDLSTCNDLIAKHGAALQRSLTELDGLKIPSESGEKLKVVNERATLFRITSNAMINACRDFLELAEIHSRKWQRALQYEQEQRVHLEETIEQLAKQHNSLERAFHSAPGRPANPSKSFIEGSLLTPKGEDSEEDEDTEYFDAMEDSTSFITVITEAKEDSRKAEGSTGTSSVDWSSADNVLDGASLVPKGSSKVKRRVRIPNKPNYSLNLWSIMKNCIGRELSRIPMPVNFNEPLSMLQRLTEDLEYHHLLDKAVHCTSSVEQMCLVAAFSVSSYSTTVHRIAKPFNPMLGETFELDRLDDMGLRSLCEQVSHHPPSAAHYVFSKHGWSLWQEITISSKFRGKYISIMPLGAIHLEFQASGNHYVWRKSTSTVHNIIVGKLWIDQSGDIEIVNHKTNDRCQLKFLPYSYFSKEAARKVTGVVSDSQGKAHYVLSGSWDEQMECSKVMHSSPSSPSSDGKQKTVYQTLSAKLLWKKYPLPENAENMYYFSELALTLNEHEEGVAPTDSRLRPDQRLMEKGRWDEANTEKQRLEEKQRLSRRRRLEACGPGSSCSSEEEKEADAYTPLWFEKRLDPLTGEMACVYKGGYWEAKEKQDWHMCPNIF

In the case of `COc1ccc(C(=O)O[C@H]2[C@H](O[C@@H]3[C@@H](OC(C)=O)[C@H](O[C@H]4C[C@H]5[C@@H]6CC=C7C[C@@H](O)CC[C@]7(C)[C@H]6CC[C@]5(C)[C@@]4(O)[C@H](C)C(=O)CCC(C)C)OC[C@@H]3O)OC[C@@H](O)[C@@H]2O)cc1` [OSW-1], the GI50 (normal astrocytes) is listed as 7.13 nM, the GI50 (normal lymphocytes) is listed as 1.73 nM and the pERK1/2 levels (pERK1/2 in HCT-116 cells) is listed as “increase in pERK1/2 comparable to cephalostatin 1”. For the same compound, the increased life span (P388 tumor cells) was 59%, the Ki (ORP4-myc-his) was 32 nM and the “effect on OSBP protein levels” value (OSBP protein levels) was “time-dependent reduction in OSBP protein levels”. The “reduction in OSBP” value (OSBP protein levels; at 24 h) was 69%, the “more active in leukemia cells versus normal lymphocytes” value (HL-60; HL-60 versus normal lymphocytes) was 40 times and the GI50 (HL-60; read-out: GI50, HL-60 leukemia cells) was 0.04 nM. The “effect on OSBP localization” value [1] was “OSBP to shift from the cytoplasm to a tight cis/medial Golgi site”, the “selectivity, malignant brain tumor cells versus normal astrocytes” value (U87-MG; U87-MG versus normal astrocytes) was 150 fold and the GI50 (U87-MG) was 0.047 nM. The “sensitization by OSBP knockdown” value ([2]; HCT-116 p21−/−) was “sensitizes”, the “sensitization (GI50 shift) by OSBP knockdown” value ([2]; HCT-116 p21−/−, OSBP knockdown by 84%) was 5.6 fold and the GI50 ([2]; OSBP knockdown by 84%, read-out: GI50 in HCT-116 p21−/− after shRNA knockdown of OSBP) was 0.04 nM. The GI50 ([2]; non-targeting shRNA, read-out: GI50 in HCT-116 p21−/− shNT cells) was 0.23 nM, the “more sensitive after OSBP knockdown” value [3] was 5.7 × and the GI50 (NCI-60) was 0.78 nM.
